The values that follow come from US8569295B2, “Bicyclic urea compounds” (Merck Patent GmbH, priority 2009, dated 2013).

The pIC50 is −log10 of the IC50, conventionally taken in molar units.

One assay deals with T1, GST-Aurora A (Homo sapiens, UniProt O14965).
T1 construct: N-terminal GST fusion with full length Aurora A (1-403 amino acids); purchased Carna Biosciences 05-101
T1 sequence (O14965 1-403): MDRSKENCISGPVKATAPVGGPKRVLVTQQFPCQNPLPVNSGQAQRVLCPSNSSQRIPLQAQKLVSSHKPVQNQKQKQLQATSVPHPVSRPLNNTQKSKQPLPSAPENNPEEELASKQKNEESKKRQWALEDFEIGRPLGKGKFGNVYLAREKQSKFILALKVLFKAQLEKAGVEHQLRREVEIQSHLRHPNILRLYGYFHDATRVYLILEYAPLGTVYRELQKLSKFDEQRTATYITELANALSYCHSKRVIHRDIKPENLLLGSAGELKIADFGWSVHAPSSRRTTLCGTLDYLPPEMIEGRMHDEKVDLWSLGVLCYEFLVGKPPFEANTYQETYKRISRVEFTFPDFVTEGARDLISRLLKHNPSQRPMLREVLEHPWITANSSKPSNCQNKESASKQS
Put plainly: Aurora A kinase biochemical mobility shift assay (Caliper LC3000 / Desktop Profiler). Particulars: AK A (Aurora kinase A) inhibition. As for the experimental part: (§1) The Aurora assays described here are performed on two Caliper Life Sciences systems: the LC3000 and the Desktop Profiler. The RON kinase assays are performed on the Desktop Profiler only. These provide data on enzyme activity via measurement of the relative amounts of phosphorylated or unphosphorylated fluorescently labelled substrate peptide at the end of an enzymatic reaction. These different states of peptide are resolved by applying a potential difference across the sample. The presence of the charged phosphate group on the product (as opposed to the substrate) causes a different peptide mobility between the two peptides. This is visualized by excitation of the fluorescent label on the substrate and product peptides and represented as peaks within the analysis software.
In order to measure inhibitor activity of Aurora A inhibitors in the Caliper Life Sciences LC3000, a TTP Mosquito liquid handling instrument is used to place 0.25 ul of the appropriate concentration of inhibitor in 100% DMSO (for a dose response curve calculation) into each well of a 384-well plate. To this reaction components are added to a final volume of 25 ul: • 0.067 ng/ul GST-Aurora A (Carna Biosciences 05-101. N-terminal GST fusion with full length Aurora A (1-403 amino acids), accession number NP_940835.1). • 15 uM ATP (Fluka, 02055) • 1 mM DTT (Sigma, D0632) • 1 mM MgCl2 (Sigma, M1028) • 1 uM substrate peptide (sequence FITC-LRRASLG-(CONH2), synthesized by Tufts Peptide Synthesis service. • 100 mM HEPES pH 7.5 (Calbiochem, 391338) • 0.015% Brij-35 (Sigma, B4184)
The reaction is incubated for 90 min at 25 C, and then stopped by the addition of 70 ul of Stop buffer (100 mM HEPES pH 7.5, 0.015% Brij-35, 10 mM EDTA (Sigma, E7889)).
The plate is read on a Caliper LC3000 in an Off-Chip mobility shift assay format, using the following parameters for a 12-sipper chip: screening pressure −1.8 psi, upstream voltage −2700, downstream voltage −1000. These conditions cause unphosphorylated substrate and phosphorylated product peptide to resolve as separate peaks allowing direct measurement of percentage of conversion of substrate to product. The percent conversion can be plotted against concentration of inhibitor to produce a sigmoidal dose response curve, from which an IC50 can be calculated using XLFit for Microsoft Excel.
(§2) The Desktop Profiler utilizes the same priniciple as the LC3000 for calculating percentage conversion of a substrate to product. Caliper Life Sciences provides proprietary flash frozen pre-made 384 well plates containing selected kinases. Each column in the 384 well plate contains a particular selected kinase. A second plate, the ‘substrate plate’ contains a mix of fluorescently labeled peptide substrate and ATP. These are arranged in columns so that transfer for substrate plate to enzyme plate provides the correct enzyme with the correct substrate/ATP concentration. Compounds are added to a thawed enzyme plate in the desired format, in single concentrations. Reactions are initiated by transfer of the substrate/ATP mix from the substrate plate. The enzyme plate is incubated for 90 minutes at 25 C. The reaction is stopped by addition of 70 ul of Stop Buffer (100 mM HEPES pH 7.5, 0.015% Brij-35, 10 mM EDTA (Sigma, E7889)).
(§3) Reading of the plate in the Profiler is identical to the LC3000, and the ratio between substrate and product peaks provides the activity of the enzyme in that well. This is best represented by a plate heat map which colors each well by percent inhibition as compared to positive and negative controls (no inhibitors and no ATP respectively).

Another assay concerns the target T2, RON kinase (Homo sapiens, UniProt Q04912).
T2 construct: purchased Caliper Life Sciences
Put plainly: RON kinase biochemical mobility shift assay (Caliper Desktop Profiler). Particulars: RON kinase inhibition. As for the experimental part: as §1, §2, §3

In the next assay the test system is normal human cell growth. Particulars: in vitro, normal human cells vs tumor cells of various origins; cited from earlier work.

SMILES strings stand for the structures. pIC50: −log10 of the molar value.

T2 sequence (Q04912 25-1400): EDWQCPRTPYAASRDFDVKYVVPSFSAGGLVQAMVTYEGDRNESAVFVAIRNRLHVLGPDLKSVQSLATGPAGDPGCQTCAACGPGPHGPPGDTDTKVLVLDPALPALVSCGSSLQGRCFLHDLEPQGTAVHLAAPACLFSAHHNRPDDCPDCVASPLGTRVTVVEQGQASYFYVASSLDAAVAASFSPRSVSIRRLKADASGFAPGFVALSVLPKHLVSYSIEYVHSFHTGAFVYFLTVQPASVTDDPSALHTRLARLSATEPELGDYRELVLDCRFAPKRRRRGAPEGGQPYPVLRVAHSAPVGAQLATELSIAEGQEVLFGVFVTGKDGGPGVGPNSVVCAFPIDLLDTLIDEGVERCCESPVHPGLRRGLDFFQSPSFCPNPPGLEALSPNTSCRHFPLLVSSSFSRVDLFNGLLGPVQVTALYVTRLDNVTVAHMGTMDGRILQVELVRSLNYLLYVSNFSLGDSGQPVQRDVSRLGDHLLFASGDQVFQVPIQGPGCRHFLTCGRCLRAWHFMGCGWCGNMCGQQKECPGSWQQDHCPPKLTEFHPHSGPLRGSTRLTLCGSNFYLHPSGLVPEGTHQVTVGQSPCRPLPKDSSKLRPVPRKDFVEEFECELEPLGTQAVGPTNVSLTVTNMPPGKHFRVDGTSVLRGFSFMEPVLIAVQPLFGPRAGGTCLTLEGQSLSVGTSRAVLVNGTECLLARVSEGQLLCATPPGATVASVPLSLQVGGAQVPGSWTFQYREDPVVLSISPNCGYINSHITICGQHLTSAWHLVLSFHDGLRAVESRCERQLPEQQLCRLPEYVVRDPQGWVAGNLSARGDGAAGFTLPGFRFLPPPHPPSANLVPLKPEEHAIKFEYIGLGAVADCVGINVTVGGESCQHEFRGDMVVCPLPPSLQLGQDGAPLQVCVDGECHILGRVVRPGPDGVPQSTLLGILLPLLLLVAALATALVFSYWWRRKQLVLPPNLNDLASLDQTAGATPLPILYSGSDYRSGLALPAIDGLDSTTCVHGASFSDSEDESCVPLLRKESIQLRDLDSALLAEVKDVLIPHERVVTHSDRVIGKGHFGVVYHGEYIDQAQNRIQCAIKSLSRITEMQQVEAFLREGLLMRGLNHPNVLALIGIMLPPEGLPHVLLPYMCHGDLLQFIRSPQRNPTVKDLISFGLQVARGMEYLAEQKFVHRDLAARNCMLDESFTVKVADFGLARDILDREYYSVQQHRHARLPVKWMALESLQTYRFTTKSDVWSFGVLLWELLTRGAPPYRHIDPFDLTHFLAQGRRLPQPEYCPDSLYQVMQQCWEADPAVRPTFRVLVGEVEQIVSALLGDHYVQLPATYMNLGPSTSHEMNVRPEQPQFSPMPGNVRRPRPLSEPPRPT

On to `O=C1NCc2c(Oc3ccc(NC(=O)c4cc(Cl)cnc4Cl)cc3F)ccnc2N1` [Example 65, 2,5-dichloro-N-{3-fluoro-4-[(2-oxo-1,2,3,4-tetrahydropyrido[2,3-d]pyrimidin-5-yl)oxy]phenyl}-nicotinamide], for which the negative logarithm of the IC50 (pIC50) at GST-Aurora A and at RON kinase was 7.00 to 8.00 in each case.
For `O=C1NCc2c(Oc3ccc(NC(=O)c4cccc(Br)c4)cc3F)ccnc2N1` [Example 66, 3-bromo-N-{3-fluoro-4-[(2-oxo-1,2,3,4-tetrahydropyrido[2,3-d]pyrimidin-5-yl)oxy]phenyl}-benzamide], the negative-log IC50 (pIC50) at GST-Aurora A and at RON kinase was 7.00 to 8.00 each time.
For the molecule `O=C(Nc1cccc(Cl)c1)Nc1ccc(Oc2ccnc3c2CNC(=O)N3)c(F)c1` [Example 67, N-(3-chlorophenyl)-N′-{3-fluoro-4-[(2-oxo-1,2,3,4-tetrahydropyrido[2,3-d]pyrimidin-5-yl)oxy]phenyl}urea], the negative-log IC50 (pIC50) on GST-Aurora A and on RON kinase was 7.00 to 8.00 throughout.
For the molecule `O=C1NCc2c(Oc3ccc(NS(=O)(=O)c4ccccc4F)cc3F)ccnc2N1` [Example 70, 2-fluoro-N-{3-fluoro-4-[(2-oxo-1,2,3,4-tetrahydropyrido[2,3-d]pyrimidin-5-yl)oxy]phenyl}benzenesulfonamide], the pIC50 on GST-Aurora A and at RON kinase was 6.00 to 7.00 throughout.
For the molecule `COc1cccc(S(=O)(=O)Nc2ccc(Oc3ccnc4c3CNC(=O)N4)c(F)c2)c1` [Example 71, N-{3-fluoro-4-[(2-oxo-1,2,3,4-tetrahydropyrido[2,3-d]pyrimidin-5-yl)oxy]phenyl}-3-methoxybenzenesulfonamide], the pIC50 on GST-Aurora A and at RON kinase was 6.00 to 7.00 each time.
In the case of `Nc1nc(Nc2ccc(S(N)(=O)=O)cc2)nn1C(=O)c1c(F)cccc1F` [JNJ-7706621], the “fold less effective at inhibiting normal human cell growth than tumor cell proliferation” value in the assay on normal human cell growth is given as “about 10 fold”.
